This is an account of results in ChEMBL document CHEMBL1201862, “PubChem BioAssay data set” (2004).

Active and inactive are the calls of the source. Cut-off read from the data, not from the text of the source, for most assays here: active = IC50 of 10 µM or less and inactive = more.

In experiment [1] the target is Melanin-concentrating hormone receptor 1 (Homo sapiens, UniProt Q99705). The experiment in a line: Fluorescence-based counterscreen for antagonists of the G-protein coupled receptor 7 (GPR7): cell-based high throughput dose response assay to identify antagonists of the melanin-concentrating hormone receptor 1 (MCHR1). It is filed as functional. In general terms: The purpose of a counterscreen is to sort out artefacts and off-target activity.

Experiment [2] concerns the target T1, Neuropeptide Y receptor type 1 (Homo sapiens, UniProt P25929).
T1 sequence (P25929 whole entry): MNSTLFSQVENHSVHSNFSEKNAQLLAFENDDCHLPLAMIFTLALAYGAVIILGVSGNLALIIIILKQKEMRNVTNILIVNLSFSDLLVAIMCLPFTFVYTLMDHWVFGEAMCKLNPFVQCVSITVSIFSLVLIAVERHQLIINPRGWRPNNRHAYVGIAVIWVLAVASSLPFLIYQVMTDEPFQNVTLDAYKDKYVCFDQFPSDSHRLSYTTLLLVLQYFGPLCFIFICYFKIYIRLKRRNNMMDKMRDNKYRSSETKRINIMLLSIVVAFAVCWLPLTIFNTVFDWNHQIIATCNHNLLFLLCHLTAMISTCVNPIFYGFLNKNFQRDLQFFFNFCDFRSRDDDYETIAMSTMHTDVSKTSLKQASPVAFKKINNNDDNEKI
Put plainly: NPY-Y1 receptor antagonist potency, dose response, cell-based (AID 1277). Format: functional.

The target in experiment [3] is T2, Neuropeptides B/W receptor type 1 (Homo sapiens, UniProt P48145).
T2 sequence (P48145 whole entry): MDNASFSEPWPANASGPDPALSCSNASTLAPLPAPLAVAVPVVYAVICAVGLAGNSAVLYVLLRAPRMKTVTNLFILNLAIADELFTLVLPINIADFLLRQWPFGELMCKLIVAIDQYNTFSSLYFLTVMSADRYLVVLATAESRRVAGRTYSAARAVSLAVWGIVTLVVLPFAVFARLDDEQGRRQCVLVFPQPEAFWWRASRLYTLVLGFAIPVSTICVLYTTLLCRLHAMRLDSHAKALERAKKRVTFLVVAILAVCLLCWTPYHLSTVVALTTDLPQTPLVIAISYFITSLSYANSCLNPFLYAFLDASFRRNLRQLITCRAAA
The experiment in a line: Fluorescence-based dose response cell-based high throughput screening assay to identify antagonists of the G-protein coupled receptor 7 (GPR7). [Related pubchem assays: 1952 (Screening assay (GPR7 antagonists).), 1880 (Summary AID.)]. Format: functional.

Experiment [4] has as its target T3, Neuropeptide Y receptor type 2 (Homo sapiens, UniProt P49146).
T3 sequence (P49146 whole entry): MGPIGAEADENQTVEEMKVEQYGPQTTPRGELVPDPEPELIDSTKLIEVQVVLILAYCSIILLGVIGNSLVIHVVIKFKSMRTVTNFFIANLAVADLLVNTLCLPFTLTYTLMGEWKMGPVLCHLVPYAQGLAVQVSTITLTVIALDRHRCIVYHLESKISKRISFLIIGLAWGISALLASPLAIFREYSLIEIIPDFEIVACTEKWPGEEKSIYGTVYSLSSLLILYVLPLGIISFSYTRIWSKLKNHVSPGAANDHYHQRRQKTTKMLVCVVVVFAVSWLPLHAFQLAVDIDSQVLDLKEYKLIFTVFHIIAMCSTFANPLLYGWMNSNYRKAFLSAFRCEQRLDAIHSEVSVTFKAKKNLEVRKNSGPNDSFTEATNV
Put plainly: NPY-Y2 antagonist potency, selectivity check, dose response, counter-screen for NPY-Y1 antagonist project, cell-based (AID 1278). It is filed as functional.

Experiment [5] has as its target T4, Estrogen receptor (Homo sapiens, UniProt P03372).
T4 sequence (P03372 whole entry): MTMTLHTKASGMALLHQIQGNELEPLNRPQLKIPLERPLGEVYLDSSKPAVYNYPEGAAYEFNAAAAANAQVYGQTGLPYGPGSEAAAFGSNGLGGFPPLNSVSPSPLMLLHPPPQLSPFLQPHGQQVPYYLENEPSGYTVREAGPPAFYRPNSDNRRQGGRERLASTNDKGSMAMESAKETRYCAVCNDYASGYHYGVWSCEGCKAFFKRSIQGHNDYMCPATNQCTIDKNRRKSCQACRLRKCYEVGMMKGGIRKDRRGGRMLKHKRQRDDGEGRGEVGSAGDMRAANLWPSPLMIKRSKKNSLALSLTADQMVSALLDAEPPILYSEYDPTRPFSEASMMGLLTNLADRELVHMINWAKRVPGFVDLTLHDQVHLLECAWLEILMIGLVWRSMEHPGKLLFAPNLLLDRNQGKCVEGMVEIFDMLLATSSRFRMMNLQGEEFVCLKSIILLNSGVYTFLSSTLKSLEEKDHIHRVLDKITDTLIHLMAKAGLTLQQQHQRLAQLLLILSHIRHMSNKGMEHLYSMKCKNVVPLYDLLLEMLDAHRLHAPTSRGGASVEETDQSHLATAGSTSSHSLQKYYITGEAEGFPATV
The experiment in a line: potentiators of ERα–SRC-1 coactivator binding, dose response, biochemical, TR-FRET, ERα LBD (AID 737). A general note: In TR-FRET formats the signal depends on donor and acceptor labels being close together.

Experiment [6] deals with Sphingosine 1-phosphate receptor 1 (Homo sapiens, UniProt P21453). Format: functional.
For experiment [7], the target named is T5, Microphthalmia-associated transcription factor (Homo sapiens, UniProt O75030).
T5 sequence (O75030 whole entry): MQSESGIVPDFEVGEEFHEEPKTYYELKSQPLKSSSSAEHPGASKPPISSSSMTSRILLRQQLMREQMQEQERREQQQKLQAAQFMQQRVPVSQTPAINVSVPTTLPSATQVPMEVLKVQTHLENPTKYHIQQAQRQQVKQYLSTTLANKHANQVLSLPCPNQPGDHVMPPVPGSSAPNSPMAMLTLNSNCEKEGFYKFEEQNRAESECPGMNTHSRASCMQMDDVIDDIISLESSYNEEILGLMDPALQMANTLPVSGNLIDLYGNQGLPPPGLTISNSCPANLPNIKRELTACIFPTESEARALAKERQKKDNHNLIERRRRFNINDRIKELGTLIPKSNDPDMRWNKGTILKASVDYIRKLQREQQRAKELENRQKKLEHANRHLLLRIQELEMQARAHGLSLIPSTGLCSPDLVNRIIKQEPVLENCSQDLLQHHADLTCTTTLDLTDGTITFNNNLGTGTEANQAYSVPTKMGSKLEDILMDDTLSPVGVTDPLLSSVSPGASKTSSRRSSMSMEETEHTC
Put plainly: TRPM1 promoter luciferase signal decrease, dose response, MITF inhibitor project, cell-based, SK-MEL-5, cherry-picked, set 3 (AID 493073).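 Note: SK-MEL-5 melanoma cells with luciferase driven by the MITF target TRPM1 promoter.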 It is filed as functional.

The target of experiment [8] is Sphingosine 1-phosphate receptor 4 (Homo sapiens, UniProt O95977). The experiment in a line: Fluorescence dose response cell-based high throughput screening assay for antagonists of the Sphingosine 1-Phosphate Receptor 4 (S1P4). [Related pubchem assays: 1524 (Confirmation in triplicates.), 1510 (Primary screen.)]. It is filed as functional.
Experiment [9] deals with T6, Interleukin-8 (Homo sapiens, UniProt P10145).
T6 sequence (P10145 whole entry): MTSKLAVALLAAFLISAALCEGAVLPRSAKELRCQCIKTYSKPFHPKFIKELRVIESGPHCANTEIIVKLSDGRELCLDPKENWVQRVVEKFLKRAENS
The experiment in a line: Dose Response confirmation of uHTS small molecule hits for cystic fibrosis induced NFkb Inhibitors in a PAF-induced IL8 counterscreen. Format: functional. To be noted: read-out: IC50_Mean.

For experiment [10], the target named is T7, High affinity choline transporter 1 (Homo sapiens, UniProt Q9GZV3).
T7 sequence (Q9GZV3 whole entry): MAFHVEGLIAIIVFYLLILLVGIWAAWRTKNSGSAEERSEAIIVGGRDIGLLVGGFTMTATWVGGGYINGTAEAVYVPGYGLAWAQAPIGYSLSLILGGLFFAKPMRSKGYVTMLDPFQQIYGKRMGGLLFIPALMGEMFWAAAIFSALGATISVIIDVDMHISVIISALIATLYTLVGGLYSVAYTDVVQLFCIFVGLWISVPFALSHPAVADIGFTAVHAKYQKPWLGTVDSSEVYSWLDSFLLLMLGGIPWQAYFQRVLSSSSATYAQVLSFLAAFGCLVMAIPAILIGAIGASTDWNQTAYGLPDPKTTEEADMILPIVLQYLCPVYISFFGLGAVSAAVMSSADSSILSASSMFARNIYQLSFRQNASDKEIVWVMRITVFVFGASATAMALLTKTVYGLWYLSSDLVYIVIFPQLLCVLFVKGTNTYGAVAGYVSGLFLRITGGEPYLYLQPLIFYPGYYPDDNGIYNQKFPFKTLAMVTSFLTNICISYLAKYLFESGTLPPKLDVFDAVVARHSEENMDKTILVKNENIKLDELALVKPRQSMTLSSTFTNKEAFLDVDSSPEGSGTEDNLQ
The experiment in a line: CHT inhibitors, dose response, cell-based, 5-point CRC, membrane potential dye (AID 504840). It is filed as functional.

In experiment [11] the target is T6, Interleukin-8. The experiment in a line: Dose Response confirmation of uHTS small molecule hits for cystic fibrosis induced NFkb Inhibitors in a TNFa-induced IL8 counterscreen. It is filed as functional. To be noted: read-out: IC50_Mean.

Sequence of Sphingosine 1-phosphate receptor 4 (O95977 whole entry): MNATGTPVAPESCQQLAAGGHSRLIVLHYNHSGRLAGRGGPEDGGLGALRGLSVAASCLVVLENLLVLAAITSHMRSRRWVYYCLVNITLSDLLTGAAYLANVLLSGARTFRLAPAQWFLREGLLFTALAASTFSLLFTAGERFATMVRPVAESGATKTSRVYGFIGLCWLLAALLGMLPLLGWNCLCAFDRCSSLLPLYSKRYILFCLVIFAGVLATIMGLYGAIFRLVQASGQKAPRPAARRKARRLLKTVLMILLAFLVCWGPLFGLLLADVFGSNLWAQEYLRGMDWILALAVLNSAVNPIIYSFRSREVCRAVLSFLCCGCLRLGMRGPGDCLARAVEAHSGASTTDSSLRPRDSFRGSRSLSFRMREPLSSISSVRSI
Sequence of Sphingosine 1-phosphate receptor 1 (P21453 whole entry): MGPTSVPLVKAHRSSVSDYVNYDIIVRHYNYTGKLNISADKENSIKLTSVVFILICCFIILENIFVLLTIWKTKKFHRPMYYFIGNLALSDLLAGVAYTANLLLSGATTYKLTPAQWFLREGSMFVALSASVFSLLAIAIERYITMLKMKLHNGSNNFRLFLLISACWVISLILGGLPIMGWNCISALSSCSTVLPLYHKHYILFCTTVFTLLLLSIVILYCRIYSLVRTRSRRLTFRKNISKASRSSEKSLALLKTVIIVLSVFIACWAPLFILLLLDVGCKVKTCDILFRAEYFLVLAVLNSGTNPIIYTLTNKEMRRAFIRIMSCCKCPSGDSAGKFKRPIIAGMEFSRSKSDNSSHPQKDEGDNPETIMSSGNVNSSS
Sequence of Melanin-concentrating hormone receptor 1 (Q99705 whole entry): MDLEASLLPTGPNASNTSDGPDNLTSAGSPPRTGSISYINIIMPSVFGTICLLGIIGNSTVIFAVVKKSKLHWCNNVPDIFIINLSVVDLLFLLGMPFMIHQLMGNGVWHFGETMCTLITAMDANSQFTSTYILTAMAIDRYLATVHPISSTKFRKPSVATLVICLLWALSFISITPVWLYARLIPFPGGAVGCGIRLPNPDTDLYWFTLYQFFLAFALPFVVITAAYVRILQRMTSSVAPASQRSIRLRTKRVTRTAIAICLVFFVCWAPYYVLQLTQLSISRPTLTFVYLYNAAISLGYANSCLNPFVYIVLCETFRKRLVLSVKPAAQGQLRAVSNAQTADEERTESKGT

Consider `COc1ccc(-c2noc(CN3CCCCC3c3nccn3C)n2)cc1` (stereo unspecified), for which the IC50 in experiment [1] is on record as > 43.8 µM (not active); in experiment [2], > 35 µM (not active); in experiment [3], > 43.8 µM (not active); in experiment [4] it was > 35 µM (not active).

One may read the EC50 as the midpoint of the concentration-response curve. `O=C1c2ccccc2C(=O)N1CCCc1nc2ccccc2c(=O)n1CCCn1ccnc1`: the EC50 in [5] was 23.5 µM (active).

The AC50 is the midpoint of the concentration-response curve, whichever way the signal moves. For the compound `CN(CCC#N)C(=O)COC(=O)c1ccccc1C(=O)c1ccc(Cl)c([N+](=O)[O-])c1`, the IC50 in [6] was 9.72 µM (active); in [8], 2.34 µM (active); in experiment [9], 0.967 µM (active); in [10], 7.81 µM (active); in experiment [11], 43 µM (inactive). The AC50 in [7] is 10.9 µM (active).
